# Data: patent US11140903B2, “Fungicidal compositions and methods” (Bayer CropScience LP, priority 2010, dated 2021)
# Experiments:
# Mycosphaerella = test: Fluopyram efficacy by fungus (Table 3)
# Septoria = settings: Fungus: Septoria
# Sigatoka = test: Fluopyram efficacy by fungus (Table 3)
# Powdery mildews = settings: Fungus: Powdery mildews
# Sclerotinia = test: Fluopyram efficacy by fungus (Table 3)
# Didymella = settings: Fungus: Didymella
# Venturia = test: Fluopyram efficacy by fungus (Table 3)
# Fusarium = test: Fluopyram efficacy by fungus (Table 3)
# Text: (§1) Without wishing to be bound by theory, the applicant hypothesizes that the decreased incidence and severity of SDS observed in plants from seed treated with fluopyram contributes to improved vigor and reduced defoliation, which in turn contributes to improved yield.
# Rusts = test: Fluopyram efficacy by fungus (Table 3)
# Text: as §1
# Colletotrichum = test: Fluopyram efficacy by fungus (Table 3)
# Text: as §1
# Anthracnose = test: Fluopyram efficacy by fungus (Table 3)
# soybean plants = test: Soybean seed treatment: plant vigor, count density and yield; format: in vivo, Glycine max (L.) Merr.
# Description: (§2) Soybean seeds (Glycine max (L.) Merr., an indeterminate line) were treated with Trilex® 2000 (7.12% (w/v) trifloxystrobin, 5.69% (w/v) metalaxyl), Gaucho® 600 FS (48.7%, (w/v) imidacloprid), Votivo® 240 FS (21.5%, (w/v) Bacillus firmus strain 1-1582), and fluopyram (41.5%, (w/v)) in the amounts and combinations shown in TABLE 1.
# (§3) Seed growth and resistance to SDS were evaluated. Data on the incidence and severity of disease, plant vigor, plant count, plant density, defoliation, and yield were collected. Identification of SDS was based on the visual symptoms described in “Compendium of Soybean Diseases” (Glen Lee Hartman, J. B. Sinclair, and John Clark Rupe, eds. Am. Phytopathological Soc. 1999).
# Vigor ratings, based on visual assessments of plant health, were collected according to the system shown in TABLE 2, with 1 being a healthy and vigorous plant and 6 being extremely low vigor.
# The error bars of FIG. 3 represent standard error, and the values within each bar are the value of that bar along the y-axis.
# Plant density was calculated as the change in density versus controls. […] The values above or below each bar are the value of that bar along the y-axis.
# To determine yield, soybeans were harvested from each plot, weighed, and their moisture content determined. The data from each treatment were normalized to the standard weight of 60 pounds of soybeans at 13% moisture. […] The values above or below each bar are the value of that bar along the y-axis.
# [1] = test system: sudden death syndrome (SDS); test: Soybean seed treatment: resistance to SDS (incidence, severity, defoliation); format: in vivo, Glycine max (L.) Merr.
# Description: as §2, §3
# Disease incidence was defined as the percentage of plants in the plot with visible symptoms of SDS. […] The values above each bar in FIG. 1 are the value of that bar along they-axis.
# Symptoms of disease severity were determined as percent severity, on a scale of 0% to 100%, by examining the leaf area on the tops of plants and determining the area affected by SDS, expressed as a percentage of the total area. […] The error bars of FIG. 2 represent standard error, and the values above each bar are the value of that bar along the y-axis.
# Defoliation was defined as the percentage of plants showing evidence of defoliation in a given plot (i.e., on a scale of 0% to 100%). […] The values above each bar are the value of that bar along the y-axis.
# Alternaria = test: Fluopyram efficacy by fungus (Table 3)
# Botrytis = test: Fluopyram efficacy by fungus (Table 3)
# Pyrenophora = test: Fluopyram efficacy by fungus (Table 3)
# Monilinia = test: Fluopyram efficacy by fungus (Table 3)
# Cylindrocladium = settings: Fungus: Cylindrocladium
compound,measurement,setting,value
"O=C(NCCc1ncc(C(F)(F)F)cc1Cl)c1ccccc1C(F)(F)F [Fluopyram, N-{2-[3-chloro-5-(trifluoromethyl)-2-pyridinyl]ethyl}-2-trifluoromethylbenzamide]",Fluopyram Efficacy,Mycosphaerella,++++
same,Fluopyram Efficacy,Septoria,++
same,Fluopyram Efficacy,Sigatoka,++++
same,Fluopyram Efficacy,Powdery mildews,++++
same,Fluopyram Efficacy,Sclerotinia,++++
same,Fluopyram Efficacy,Didymella,++
same,Fluopyram Efficacy,Venturia,+++
same,Fluopyram Efficacy,Fusarium; Fungus: Fusarium,+
same,efficacy of fluopyram against Fusarium,Fusarium; relative to other fungi,low
same,Fluopyram Efficacy,Rusts,+
same,Fluopyram Efficacy,Colletotrichum,++
same,Fluopyram Efficacy,Anthracnose,+
same,Count density (change in plant density versus control),"soybean plants; fluopyram alone, 0.17-0.67 mga/seed (columns 4-6), FIG. 4, versus control",decreased count density
same,"Vigor (visual vigor rating, scale 1-6 of Table 2)","soybean plants; soybean seed treatment, FIG. 3",not adversely affected
same,Percent yield versus control,"soybean plants; soybean seed treatment, FIG. 6, normalized to 60 pounds at 13% moisture, versus seeds not treated with fluopyram",greater percent yield
same,Disease incidence (percentage of plants in the plot with visible symptoms of SDS),"[1]; FIG. 1, compared between seeds with and without fluopyram",significantly reduced disease incidence
same,Disease severity (percent leaf area affected by SDS),"[1]; FIG. 2, compared between seeds with and without fluopyram",less disease severity
same,Defoliation (percentage of plants showing evidence of defoliation in a plot),"[1]; FIG. 5, compared between seeds with and without fluopyram",less defoliation
same,Fluopyram Efficacy,Alternaria,+++
same,Fluopyram Efficacy,Botrytis,++++
same,Fluopyram Efficacy,Pyrenophora,+++
same,Fluopyram Efficacy,Monilinia,++++
same,Fluopyram Efficacy,Cylindrocladium,++
